Where a name gives a salt, the structure may show the parent alone.
Target: T1, recombinant guanylate cyclase reporter cell line (Rattus norvegicus, UniProt P19686+P20595)
T1 construct: expressed in transfected cells; host or cells: recombinant reporter cell line
T1 sequence (P19686 1-690): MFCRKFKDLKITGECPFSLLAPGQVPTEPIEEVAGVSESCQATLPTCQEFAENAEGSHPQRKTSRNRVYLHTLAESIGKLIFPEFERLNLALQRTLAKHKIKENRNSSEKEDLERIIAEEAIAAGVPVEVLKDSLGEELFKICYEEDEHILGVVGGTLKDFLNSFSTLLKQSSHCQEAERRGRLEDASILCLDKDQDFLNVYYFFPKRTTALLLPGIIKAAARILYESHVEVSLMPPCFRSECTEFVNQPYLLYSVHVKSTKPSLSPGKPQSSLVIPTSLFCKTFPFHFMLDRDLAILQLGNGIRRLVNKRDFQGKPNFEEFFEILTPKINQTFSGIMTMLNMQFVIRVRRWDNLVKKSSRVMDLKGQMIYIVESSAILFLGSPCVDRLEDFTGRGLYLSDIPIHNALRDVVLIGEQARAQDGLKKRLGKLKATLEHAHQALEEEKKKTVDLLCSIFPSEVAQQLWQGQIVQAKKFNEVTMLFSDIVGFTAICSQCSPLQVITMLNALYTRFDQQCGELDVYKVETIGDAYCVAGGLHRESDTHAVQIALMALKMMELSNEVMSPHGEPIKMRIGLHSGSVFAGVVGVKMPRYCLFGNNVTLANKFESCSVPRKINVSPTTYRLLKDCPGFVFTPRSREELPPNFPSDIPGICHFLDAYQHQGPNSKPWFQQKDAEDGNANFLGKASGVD
T1 sequence (P20595 1-619): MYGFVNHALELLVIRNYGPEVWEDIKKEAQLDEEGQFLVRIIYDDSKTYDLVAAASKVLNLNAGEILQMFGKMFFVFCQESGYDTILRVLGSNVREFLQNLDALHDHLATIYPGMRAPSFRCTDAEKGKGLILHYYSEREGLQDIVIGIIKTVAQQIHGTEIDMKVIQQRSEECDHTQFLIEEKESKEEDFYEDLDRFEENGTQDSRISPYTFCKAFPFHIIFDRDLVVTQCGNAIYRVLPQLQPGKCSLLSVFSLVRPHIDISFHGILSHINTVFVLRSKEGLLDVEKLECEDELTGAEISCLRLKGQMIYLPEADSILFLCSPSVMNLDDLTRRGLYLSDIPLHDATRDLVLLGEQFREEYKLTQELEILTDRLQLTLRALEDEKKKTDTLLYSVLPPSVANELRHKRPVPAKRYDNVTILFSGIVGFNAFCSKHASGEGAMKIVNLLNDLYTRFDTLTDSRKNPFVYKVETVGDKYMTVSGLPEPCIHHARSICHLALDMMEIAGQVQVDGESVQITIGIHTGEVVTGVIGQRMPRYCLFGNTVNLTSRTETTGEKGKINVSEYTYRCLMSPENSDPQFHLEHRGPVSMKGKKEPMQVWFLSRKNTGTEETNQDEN
Assay: Effect on a recombinant guanylate cyclase reporter cell line
Assay type: cell-based
Conditions: MEC = minimum effective concentration; in some cases mean values for individual determinations
Description: B-2. Effect on a Recombinant Guanylate Cyclase Reporter Cell Line
The cellular effect of the inventive compounds is determined using a recombinant guanylate cyclase reporter cell line, as described in F. Wunder et al., Anal. Biochem. 339, 104-112 (2005).
Representative MEC values (MEC=minimum effective concentration) for the inventive compounds are shown in the table below (in some cases as mean values for individual determinations): […]

Row | MEC [µM] | SMILES
1 | 0.1 | CCOc1cc(-c2c(C)nc3c(OCc4c(F)cccc4F)cc(C)cn23)sc1N [Example 139, 5-{8-[(2,6-Difluorobenzyl)oxy]-2,6-dimethylimidazo[1,2-a]pyridin-3-yl}-3-ethoxythiophen-2-amine]
2 | 0.3 | Cc1cc(OCc2c(F)cccc2F)c2nc(C)c(-c3nc(CC(C)(C)N)no3)n2c1.O=CO [Example 132, 1-(5-{8-[(2,6-Difluorobenzyl)oxy]-2,6-dimethylimidazo[1,2-a]pyridin-3-yl}-1,2,4-oxadiazol-3-yl)-2-methylpropan-2-amine formate]
3 | 3.0 | Cc1cc(OCc2ncccc2F)c2nc(C)c(-c3cnn(CC(C)(C)N)c3)n2c1 [Example 85, 1-(4-{8-[(3-Fluoropyridin-2-yl)methoxy]-2,6-dimethylimidazo[1,2-a]pyridin-3-yl}-1H-pyrazol-1-yl)-2-methylpropan-2-amine]
4 | 3.0 | CCOC(=O)c1ncc(-c2c(C)nc3c(OCc4c(F)cccc4F)cc(C)cn23)s1 [Example 138, Ethyl 5-{8-[(2,6-difluorobenzyl)oxy]-2,6-dimethylimidazo[1,2-a]pyridin-3-yl}-1,3-thiazole-2-carboxylate]
5 | 0.2 | Cc1nc2c(OCc3c(F)cccc3F)cccn2c1-c1cccc(NS(C)(=O)=O)c1 [Example 48]
6 | 1.0 | Cc1cc(OCc2c(F)cccc2F)c2nc(C)c(-c3cc(CC(C)(C)N)n[nH]3)n2c1 [Example 143, 1-(3-{8-[(2,6-Difluorobenzyl)oxy]-2,6-dimethylimidazo[1,2-a]pyridin-3-yl}-1H-pyrazol-5-yl)-2-methylpropan-2-amine]
7 | 0.3 | Cc1cc(OCc2c(F)cccc2F)c2nc(C)c(-c3cnn(C(C)C(=O)O)c3)n2c1 (stereo not drawn) [Example 109]
8 | 3.0 | Cc1nc2c(OCc3c(F)cccc3F)cccn2c1-c1nc(N)n[nH]1 [Example 124, 5-{8-[(2,6-Difluorobenzyl)oxy]-2-methylimidazo[1,2-a]pyridin-3-yl}-1H-1,2,4-triazol-3-amine]
9 | 0.1 | Cc1cc(OCc2c(F)cccc2F)c2nc(C)c(-c3cnn(CCCc4nnn[nH]4)c3)n2c1 [Example 101, 8-[(2,6-Difluorobenzyl)oxy]-2,6-dimethyl-3-{1-[3-(1H-tetrazol-5-yl)propyl]-1H-pyrazol-4-yl}imidazo[1,2-a]pyridine]
10 | 3.0 | Cc1nc2c(OCC3CCCCC3)cccn2c1-c1nnc(-c2ncccn2)o1 [Example 62, 8-(Cyclohexylmethoxy)-2-methyl-3-[5-(pyrimidin-2-yl)-1,3,4-oxadiazol-2-yl]imidazo[1,2-a]pyridine]
11 | 0.1 | Cc1cc(OCc2c(F)cccc2F)c2nc(C)c(-c3cnn(CC(C)(C)N)c3)n2c1.Cl [Example 117, 1-(4-{8-[(2,6-Difluorobenzyl)oxy]-2,6-dimethylimidazo[1,2-a]pyridin-3-yl}-1H-pyrazol-1-yl)-2-methylpropan-2-amine hydrochloride]
12 | 3.0 | Cc1cc(OCc2c(F)cccc2F)c2nc(C)c(-c3ncc(C)o3)n2c1 [Example 137, 8-[(2,6-Difluorobenzyl)oxy]-2,6-dimethyl-3-(5-methyl-1,3-oxazol-2-yl)imidazo[1,2-a]pyridine]
13 | 0.1 | Cc1cc(OCc2c(F)cccc2F)c2nc(C)c(-c3cc(CO)no3)n2c1 [Example 142, (5-{8-[(2,6-Difluorobenzyl)oxy]-2,6-dimethylimidazo[1,2-a]pyridin-3-yl}-1,2-oxazol-3-yl)methanol]
14 | 3.0 | Cc1nc2c(OCc3c(F)cccc3F)cccn2c1-c1ccc(F)c(CN2CCOCC2)c1 [Example 44, 8-[(2,6-difluorobenzyl)oxy]-3-[4-fluoro-3-(morpholin-4-ylmethyl)phenyl]-2-methylimidazo[1,2-a]pyridine]
15 | 1.0 | Cc1cc(OCc2c(F)cccc2F)c2nc(C)c(-c3cnn(C4CC4C(=O)O)c3)n2c1 (stereo not drawn) [Example 111]
16 | 3.0 | Cc1nc2c(OCC3CCCCC3)cccn2c1-c1nnc(C(C)O)o1 (stereo not drawn) [Example 65]
17 | 0.3 | COC(=O)C(C)n1cc(-c2c(C)nc3c(OCc4c(F)cccc4F)cc(C)cn23)cn1 (stereo not drawn) [Example 104]

Row | MEC [µM] | SMILES
18 | 3.0 | Cc1nc2c(OCC3CCCCC3)cccn2c1-c1nnc(C2CCS(=O)(=O)C2)o1 (stereo not drawn) [Example 73]
19 | 0.1 | Cc1nc2c(OCc3c(F)cccc3F)cccn2c1-c1cccc(C(N)=O)c1 [Example 7, 3-{8-[(2,6-difluorobenzyl)oxy]-2-methylimidazo[1,2-a]pyridin-3-yl}benzamide]
20 | 0.03 | COC(=O)Cn1cc(-c2c(C)nc3c(OCc4c(F)cccc4F)cc(C)cn23)cn1 [Example 103, methyl (4-{8-[(2,6-difluorobenzyl)oxy]-2,6-dimethylimidazo[1,2-a]pyridin-3-yl}-1H-pyrazol-1-yl)acetate]
21 | 3.0 | Cc1nc2c(OCc3c(F)cccc3F)cccn2c1-c1cccc(N2CCCCC2)c1 [Example 38, 8-[(2,6-difluorobenzyl)oxy]-2-methyl-3-[3-(piperidin-1-yl)phenyl]imidazo[1,2-a]pyridine]
22 | 0.3 | Cc1cc(OCc2c(F)cccc2F)c2nc(C)c(-c3cnn(CCN4CCN(C)CC4)c3)n2c1 [Example 94, 8-[(2,6-Difluorobenzyl)oxy]-2,6-dimethyl-3-{1-[2-(4-methylpiperazin-1-yl)ethyl]-1H-pyrazol-4-yl}imidazo[1,2-a]pyridine]
23 | 0.3 | Cc1nc2c(OCc3c(F)cccc3F)cccn2c1-c1ccn[nH]1 [Example 47]
24 | 3.0 | Cc1nc2c(OCC3CCCCC3)cccn2c1-c1nnc(C2CC2)o1 [Example 74]
25 | 3.0 | CSc1cccc(-c2c(C)nc3c(OCc4c(F)cccc4F)cccn23)c1 [Example 33, 8-[(2,6-difluorobenzyl)oxy]-2-methyl-3-[3-(methylsulphanyl)phenyl]imidazo[1,2-a]pyridine]
26 | 1.0 | COCCN(C)Cc1cc(-c2c(C)nc3c(OCc4c(F)cccc4F)cccn23)ccc1OC [Example 27, N-(5-{8-[(2,6-difluorobenzyl)oxy]-2-methylimidazo[1,2-a]pyridin-3-yl}-2-methoxybenzyl)-2-methoxy-N-methylethanamine]
27 | 0.065 | Cc1nc2c(OCc3c(F)cccc3F)cccn2c1-c1cnn(Cc2ccccc2)c1 [Example 1, 3-(1-Benzyl-1H-pyrazol-4-yl)-8-[(2,6-difluorobenzyl)oxy]-2-methylimidazo[1,2-a]pyridine]
28 | 3.0 | Cc1cc(OCc2c(F)cccc2F)c2nc(C)c(-c3nccc(C(=O)NC4CC4)n3)n2c1 [Example 81, N-Cyclopropyl-2-{8-[(2,6-difluorobenzyl)oxy]-2,6-dimethylimidazo[1,2-a]pyridin-3-yl}pyrimidine-4-carboxamide trifluoroacetate]
29 | 3.0 | CCC(C)c1nnc(-c2c(C)nc3c(OCC4CCCCC4)cccn23)o1 (stereo not drawn) [Example 70]
30 | 0.1 | Cc1cc(OCc2c(F)cccc2F)c2nc(C)c(-c3cnn(CCO)c3)n2c1 [Example 91, 2-(4-{8-[(2,6-difluorobenzyl)oxy]-2,6-dimethylimidazo[1,2-a]pyridin-3-yl}-1H-pyrazol-1-yl)ethanol]
31 | 3.0 | C=Cc1ccc(-c2c(C)nc3c(OCc4c(F)cccc4F)cccn23)cc1 [Example 32, 8-[(2,6-difluorobenzyl)oxy]-2-methyl-3-(4-vinylphenyl)imidazo[1,2-a]pyridine]
32 | 0.1 | Cc1cc(OCc2c(F)cccc2F)c2nc(C)c(-c3cn[nH]n3)n2c1 [Example 82, 8-[(2,6-difluorobenzyl)oxy]-2,6-dimethyl-3-(2H-1,2,3-triazol-4-yl)imidazo[1,2-a]pyridine]
33 | 1.0 | Cc1nc2c(OCc3c(F)cccc3F)cccn2c1-c1ccc2c(c1)COC2=O [Example 23, 5-{8-[(2,6-difluorobenzyl)oxy]-2-methylimidazo[1,2-a]pyridin-3-yl}-2-benzofuran-1(3H)-one]

Source: patent US9776997B2, “3-aryl-substituted imidazo[1,2-A]pyridines and their use” (Bayer Pharma Aktiengesellschaft, priority 2013, dated 2017)
